Results as given in patent US20230265151A1, “GIP/GLP1 CO-AGONIST COMPOUNDS” (priority 2020, published 2023).
Where two headings read alike, the source gives them in different places. *1 amine or outer side, *2 acyl side, *3 side chain or, on linkers, in order; H or OH if unused. Where a SMILES comes first, the peptide text is derived from it. Side-chain parts run from the residue outwards. [ ]: non-standard residue; d: D form. The star is where a group is joined. Decanoyl(10-(4-HOOC-PhO)) = O=C(O)c1ccc(OCCCCCCCCCC(=O)*)cc1; αMePhe(2-F) = C[C@](N)(Cc1ccccc1F)C(=O)O; γGlu = O=C(O)[C@H](CCC(=O)[*:2])N[*:1]; αMeY = C[C@](N)(Cc1ccc(O)cc1)C(=O)O; αMeL = CC(C)C[C@](C)(N)C(=O)O; Orn = NCCC[C@H](N)C(=O)O; AEEA = NCCOCCOCC(=O)O; Aib = CC(C)(N)C(=O)O

What was measured:
Assay type in all cases: cell-based
hGCGR = target: T1, hGCGR (Homo sapiens, UniProt P47871); assay: Functional cAMP formation (HTRF) in HEK-293 clonal cells expressing hGCGR, 0.1% bovine casein, without or with 1.0% human serum albumin; conditions: hGCGR EC50, nM (SEM, n), cAMP, 37° C.
T1 construct: expressed in transfected cells
Procedure, shortened: (§1)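 Cells were stimulated with peptide for 30 min at 37° C, then intracellular cAMP was measured by competitive HTRF (665/620 nm ratio) and converted to nM using a cAMP standard curve. Relative EC50 and Emax came from four-parameter logistic fits of percent maximal response against peptide concentration.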

hGIPR = target: T2, hGIPR (Homo sapiens, UniProt P48546); assay: Functional cAMP formation (HTRF) in HEK-293 clonal cells expressing hGIPR, 0.1% bovine casein, without or with 1.0% human serum albumin; conditions: for Emax: percent of maximal response to GIP(1-42)NH2; for EC50: hGIPR EC50, nM (SEM, n), cAMP, 37° C.
T2 construct: expressed in transfected cells
T2 sequence (P48546 22-466): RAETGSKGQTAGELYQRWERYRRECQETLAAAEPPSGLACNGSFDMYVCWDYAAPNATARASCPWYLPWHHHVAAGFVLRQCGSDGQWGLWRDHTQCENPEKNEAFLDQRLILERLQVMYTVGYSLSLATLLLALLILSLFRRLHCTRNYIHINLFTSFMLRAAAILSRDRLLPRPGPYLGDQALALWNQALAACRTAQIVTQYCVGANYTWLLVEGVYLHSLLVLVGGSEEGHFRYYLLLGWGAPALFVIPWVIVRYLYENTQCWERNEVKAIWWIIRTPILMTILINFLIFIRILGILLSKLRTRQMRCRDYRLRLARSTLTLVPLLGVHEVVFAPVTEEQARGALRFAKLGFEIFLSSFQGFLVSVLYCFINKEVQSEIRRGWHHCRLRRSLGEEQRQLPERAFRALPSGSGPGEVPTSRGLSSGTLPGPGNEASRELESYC
Procedure, shortened: as §1

hGLP-1R = hGLP-1R (Homo sapiens, UniProt P43220); assay: Functional cAMP formation (HTRF) in HEK-293 clonal cells expressing hGLP-1R, 0.1% bovine casein, without or with 1.0% human serum albumin; design: expressed in transfected cells; conditions: for Emax: HEK293, read-out: hGLP-1R Emax, % ± SEM, cAMP, 37° C., 0.1% bovine casein and 1.0% human serum albumin, percent of maximal response to GLP-1(7-36)NH2; for EC50: hGLP-1R EC50, nM (SEM, n), cAMP, 37° C., 0.1% bovine casein (no human serum albumin), geometric mean
Procedure, shortened: as §1

[1] = 0.1% bovine casein (no human serum albumin), geometric mean
[2] = 0.1% bovine casein and 1.0% human serum albumin, geometric mean (SEM, n)
[3] = HEK293, read-out: hGIPR Emax, % ± SEM, cAMP, 37° C., 0.1% bovine casein and 1.0% human serum albumin
[4] = HEK293, read-out: hGIPR Emax, % ± SEM, cAMP, 37° C., 0.1% bovine casein, arithmetic mean

T1 sequence (P47871 26-477): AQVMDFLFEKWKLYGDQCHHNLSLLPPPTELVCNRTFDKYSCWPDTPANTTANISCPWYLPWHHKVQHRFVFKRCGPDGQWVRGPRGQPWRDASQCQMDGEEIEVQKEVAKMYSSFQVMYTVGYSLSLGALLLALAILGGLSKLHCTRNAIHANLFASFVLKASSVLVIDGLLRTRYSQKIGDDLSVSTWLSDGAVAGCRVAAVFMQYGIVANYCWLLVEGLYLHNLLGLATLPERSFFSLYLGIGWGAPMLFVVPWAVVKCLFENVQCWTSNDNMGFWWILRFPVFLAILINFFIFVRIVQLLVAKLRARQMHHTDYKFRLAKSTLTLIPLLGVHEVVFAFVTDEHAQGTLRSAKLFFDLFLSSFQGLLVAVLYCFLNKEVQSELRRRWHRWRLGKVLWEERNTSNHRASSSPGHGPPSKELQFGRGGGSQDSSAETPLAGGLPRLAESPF
Sequence of hGLP-1R (P43220 24-463): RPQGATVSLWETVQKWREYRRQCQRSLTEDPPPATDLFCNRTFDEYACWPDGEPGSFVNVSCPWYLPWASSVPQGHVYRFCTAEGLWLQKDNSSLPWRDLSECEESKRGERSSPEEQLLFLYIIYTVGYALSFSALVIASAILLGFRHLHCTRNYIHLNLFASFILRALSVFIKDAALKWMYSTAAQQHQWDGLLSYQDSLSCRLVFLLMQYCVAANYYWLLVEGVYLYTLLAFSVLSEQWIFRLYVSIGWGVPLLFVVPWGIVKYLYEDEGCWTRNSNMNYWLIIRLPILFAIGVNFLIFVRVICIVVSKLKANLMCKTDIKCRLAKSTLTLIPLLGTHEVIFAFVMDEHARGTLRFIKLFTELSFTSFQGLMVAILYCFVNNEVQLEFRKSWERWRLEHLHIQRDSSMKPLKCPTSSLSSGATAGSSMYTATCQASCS

SMILES | EC50 (hGCGR; [1]) [nM] | EC50 (hGCGR; [2]) [nM] | Emax (hGIPR; [3]) [%] | EC50 (hGIPR; [1]) [nM] | Emax (hGLP-1R) [%] | EC50 (hGLP-1R) [nM] | Emax (hGIPR; [4]) [%] | EC50 (hGIPR; [2]) [nM]
CC[C@H](C)[C@H](NC(=O)[C@H](CC(C)C)NC(=O)[C@](C)(Cc1ccc(O)cc1)NC(=O)[C@@H](CCC(=O)O)NC(=O)[C@@H](NC(=O)[C@H](Cc1ccccc1)NC(=O)[C@H](CCC(=O)O)NC(=O)C(C)(C)NC(=O)[C@H](CCC(N)=O)NC(=O)[C@H](C)NC(=O)[C@H](CCCCNC(=O)COCCOCCNC(=O)CC[C@H](NC(=O)CCCCCCCCCOc1ccc(C(=O)O)cc1)C(=O)O)NC(=O)[C@H](CCCN)NC(=O)[C@H](CC(=O)O)NC(=O)[C@H](CC(C)C)NC(=O)[C@](C)(CC(C)C)NC(=O)[C@@H](NC(=O)C(C)(C)NC(=O)[C@H](Cc1ccc(O)cc1)NC(=O)[C@H](CC(=O)O)NC(=O)[C@H](CO)NC(=O)[C@@H](NC(=O)[C@](C)(Cc1ccccc1F)NC(=O)[C@@H](NC(=O)CNC(=O)[C@H](CCC(=O)O)NC(=O)C(C)(C)NC(=O)[C@@H](N)Cc1ccc(O)cc1)[C@@H](C)O)[C@@H](C)O)[C@@H](C)CC)[C@@H](C)CC)C(=O)N[C@@H](CCCCNC(=O)COCCOCCNC(=O)CC[C@H](NC(=O)CCCCCCCCCOc1ccc(C(=O)O)cc1)C(=O)O)C(=O)NCC(=O)NCC(=O)N1CCC[C@H]1C(=O)N[C@@H](CO)C(=O)N[C@@H](CO)C(=O)NCC(=O)N[C@@H](C)C(=O)N1CCC[C@H]1C(=O)N1CCC[C@H]1C(=O)N1CCC[C@H]1C(=O)N[C@@H](CO)C(N)=O [Example 373] | > 9950 | > 9950 | 82.4 | 0.0152 | 112 | 0.329 |  | 
CC[C@H](C)[C@H](NC(=O)[C@H](CC(C)C)NC(=O)[C@](C)(Cc1ccc(O)cc1)NC(=O)[C@@H](CCC(=O)O)NC(=O)[C@@H](NC(=O)[C@H](Cc1ccccc1)NC(=O)[C@H](CCC(=O)O)NC(=O)C(C)(C)NC(=O)[C@H](CCC(N)=O)NC(=O)[C@H](C)NC(=O)[C@H](CCCCNC(=O)COCCOCCNC(=O)CC[C@H](NC(=O)CCCCCCCCCOc1ccc(C(=O)O)cc1)C(=O)O)NC(=O)[C@H](CCCN)NC(=O)[C@H](CC(=O)O)NC(=O)[C@H](CC(C)C)NC(=O)[C@](C)(CC(C)C)NC(=O)[C@@H](NC(=O)C(C)(C)NC(=O)[C@H](Cc1ccc(O)cc1)NC(=O)[C@H](CC(=O)O)NC(=O)[C@H](CO)NC(=O)[C@@H](NC(=O)[C@](C)(Cc1ccccc1F)NC(=O)[C@@H](NC(=O)CNC(=O)[C@H](CCC(=O)O)NC(=O)C(C)(C)NC(=O)[C@@H](N)Cc1ccc(O)cc1)[C@@H](C)O)[C@@H](C)O)[C@@H](C)CC)[C@@H](C)CC)C(=O)N[C@@H](CCC(=O)O)C(=O)NCC(=O)NCC(=O)N1CCC[C@H]1C(=O)N[C@@H](CO)C(=O)N[C@@H](CO)C(=O)NCC(=O)N[C@@H](C)C(=O)N1CCC[C@H]1C(=O)N1CCC[C@H]1C(=O)N1CCC[C@H]1C(=O)N[C@@H](CO)C(=O)N[C@@H](CCCCNC(=O)COCCOCCNC(=O)CC[C@H](NC(=O)CCCCCCCCCOc1ccc(C(=O)O)cc1)C(=O)O)C(N)=O [Example 374] | > 9950 | > 9950 | 88.8 | 0.0135 |  | 0.269 | 96.2 | 
CC[C@H](C)[C@H](NC(=O)[C@H](CCCN)NC(=O)[C@H](CC(=O)O)NC(=O)[C@H](CC(C)C)NC(=O)[C@](C)(CC(C)C)NC(=O)[C@@H](NC(=O)C(C)(C)NC(=O)[C@H](Cc1ccc(O)cc1)NC(=O)[C@H](CC(=O)O)NC(=O)[C@H](CO)NC(=O)[C@@H](NC(=O)[C@](C)(Cc1ccccc1F)NC(=O)[C@@H](NC(=O)CNC(=O)[C@H](CCC(=O)O)NC(=O)C(C)(C)NC(=O)[C@@H](N)Cc1ccc(O)cc1)[C@@H](C)O)[C@@H](C)O)[C@@H](C)CC)C(=O)N[C@@H](C)C(=O)N[C@@H](CCC(N)=O)C(=O)NC(C)(C)C(=O)N[C@@H](CCC(=O)O)C(=O)N[C@@H](Cc1ccccc1)C(=O)N[C@H](C(=O)N[C@@H](CCCCNC(=O)COCCOCCNC(=O)CC[C@H](NC(=O)CCCCCCCCCOc1ccc(C(=O)O)cc1)C(=O)O)C(=O)N[C@@](C)(Cc1ccc(O)cc1)C(=O)N[C@@H](CC(C)C)C(=O)N[C@H](C(=O)N[C@@H](CCCCNC(=O)COCCOCCNC(=O)CC[C@H](NC(=O)CCCCCCCCCOc1ccc(C(=O)O)cc1)C(=O)O)C(=O)NCC(=O)NCC(=O)N1CCC[C@H]1C(=O)N[C@@H](CO)C(=O)N[C@@H](CO)C(=O)NCC(=O)N[C@@H](C)C(=O)N1CCC[C@H]1C(=O)N1CCC[C@H]1C(=O)N1CCC[C@H]1C(=O)N[C@@H](CO)C(N)=O)[C@@H](C)CC)[C@@H](C)CC [Example 375] | > 9950 | > 9950 | 85.4 | 0.0566 | 113 | 1.11 | 100 | 4.68
CC[C@H](C)[C@H](NC(=O)[C@H](CCCN)NC(=O)[C@H](CC(=O)O)NC(=O)[C@H](CC(C)C)NC(=O)[C@](C)(CC(C)C)NC(=O)[C@@H](NC(=O)C(C)(C)NC(=O)[C@H](Cc1ccc(O)cc1)NC(=O)[C@H](CC(=O)O)NC(=O)[C@H](CO)NC(=O)[C@@H](NC(=O)[C@](C)(Cc1ccccc1F)NC(=O)[C@@H](NC(=O)CNC(=O)[C@H](CCC(=O)O)NC(=O)C(C)(C)NC(=O)[C@@H](N)Cc1ccc(O)cc1)[C@@H](C)O)[C@@H](C)O)[C@@H](C)CC)C(=O)N[C@@H](C)C(=O)N[C@@H](CCC(N)=O)C(=O)NC(C)(C)C(=O)N[C@@H](CCCCNC(=O)COCCOCCNC(=O)CC[C@H](NC(=O)CCCCCCCCCOc1ccc(C(=O)O)cc1)C(=O)O)C(=O)N[C@@H](Cc1ccccc1)C(=O)N[C@H](C(=O)N[C@H](CCC(=O)O)C(=O)N[C@@](C)(Cc1ccc(O)cc1)C(=O)N[C@@H](CC(C)C)C(=O)N[C@H](C(=O)N[C@@H](CCCCNC(=O)COCCOCCNC(=O)CC[C@H](NC(=O)CCCCCCCCCOc1ccc(C(=O)O)cc1)C(=O)O)C(=O)NCC(=O)NCC(=O)N1CCC[C@H]1C(=O)N[C@@H](CO)C(=O)N[C@@H](CO)C(=O)NCC(=O)N[C@@H](C)C(=O)N1CCC[C@H]1C(=O)N1CCC[C@H]1C(=O)N1CCC[C@H]1C(=O)N[C@@H](CO)C(N)=O)[C@@H](C)CC)[C@@H](C)CC [Example 376] (H-Y[Aib]EGT[αMePhe(2-F)]TSDY[Aib]I[αMeL]LD[Orn]IAQ[Aib]K([AEEA-γGlu-Decanoyl(10-(4-HOOC-PhO))])FI[dE][αMeY]LIK([AEEA-γGlu-Decanoyl(10-(4-HOOC-PhO))])GGPSSGAPPPS-NH2) | > 9950 | > 9950 | 88.3 | 0.0281 | 121 | 0.539 |  | 
